Laboratory results published in US20130315843A1, “COMPOSITION FOR REDUCTION OF TRPA1 AND TRPV1 SENSATIONS” (priority 2012, published 2013).

Target: T1, human TRPA1 (Homo sapiens, UniProt O75762)
Experiment: FLIPR Ca2+ assay, reduction of hydrogen peroxide activation of TRPA1
Type: cell-based
Parameters: expressed in transfected cells
Details: 100 μM antagonist vs 500 μM hydrogen peroxide
Experimental: After centrifugation, a pellet of cells was formed in the bottom of the tube separating them from the supernatant solution.
(§1) The pelleted cells were re-suspended in 10 ml assay buffer and 90 μl aliquots (˜50,000 cells) per well delivered to a 96-well assay plate containing 10 μl of test compounds ([…]) or buffer control and incubated at room temperature for 30 minutes.

T1 sequence (O75762 whole entry): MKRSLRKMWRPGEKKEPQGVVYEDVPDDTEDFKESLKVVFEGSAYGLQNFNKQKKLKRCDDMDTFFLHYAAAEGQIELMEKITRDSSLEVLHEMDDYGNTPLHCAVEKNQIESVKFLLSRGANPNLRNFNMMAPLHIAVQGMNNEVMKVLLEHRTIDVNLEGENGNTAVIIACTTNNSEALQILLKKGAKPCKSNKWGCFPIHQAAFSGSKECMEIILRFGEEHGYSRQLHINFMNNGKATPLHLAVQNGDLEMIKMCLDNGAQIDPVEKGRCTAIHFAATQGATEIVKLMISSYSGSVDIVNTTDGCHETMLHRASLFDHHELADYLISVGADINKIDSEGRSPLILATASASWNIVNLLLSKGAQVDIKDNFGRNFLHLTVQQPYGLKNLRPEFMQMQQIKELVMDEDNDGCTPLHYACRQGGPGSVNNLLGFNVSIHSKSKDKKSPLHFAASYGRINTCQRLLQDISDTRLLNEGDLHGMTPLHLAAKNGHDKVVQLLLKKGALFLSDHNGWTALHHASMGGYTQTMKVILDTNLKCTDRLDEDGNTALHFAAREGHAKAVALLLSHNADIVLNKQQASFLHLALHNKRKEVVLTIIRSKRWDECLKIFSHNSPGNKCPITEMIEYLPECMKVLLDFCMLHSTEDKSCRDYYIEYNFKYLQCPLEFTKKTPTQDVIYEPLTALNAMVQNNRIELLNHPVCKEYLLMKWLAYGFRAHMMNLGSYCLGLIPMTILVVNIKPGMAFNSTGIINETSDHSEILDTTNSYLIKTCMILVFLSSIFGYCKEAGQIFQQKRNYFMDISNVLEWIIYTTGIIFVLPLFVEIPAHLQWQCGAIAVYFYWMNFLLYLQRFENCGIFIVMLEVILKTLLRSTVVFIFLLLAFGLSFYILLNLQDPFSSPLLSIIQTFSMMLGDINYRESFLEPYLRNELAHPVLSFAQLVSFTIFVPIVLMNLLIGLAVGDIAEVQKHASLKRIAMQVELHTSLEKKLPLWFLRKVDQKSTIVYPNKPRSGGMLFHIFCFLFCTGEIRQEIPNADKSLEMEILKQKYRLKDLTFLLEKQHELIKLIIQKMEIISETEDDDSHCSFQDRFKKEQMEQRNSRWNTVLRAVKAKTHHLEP

| Compound | Block of hydrogen peroxide activation of TRPA1 |
| --- | --- |
| O=C(CCc1ccc(O)cc1)c1c(O)cc(O)cc1O [phloretin] | Block menthol, H2O2, and AITC on TRPA1 |
| manganese chloride | Block menthol, H2O2, and AITC on TRPA1 |

Same assay, conditions: compound 100 μM against 200 μM hydrogen peroxide; Sets 1-4

| Compound | Average Ca++ Counts [Counts] | % Reduction of Hydrogen Peroxide TRPA1 Activation [%] |
| --- | --- | --- |
| O=C(CCc1ccc(O)cc1)c1c(O)cc(O)cc1O [phloretin] | 215.0 |  |
| manganese chloride | 2872.5 | 59.2 |

Same assay, conditions: compound 100 μM against 200 μM hydrogen peroxide; Sets 1-4; read-out: % Reduction of Hydrogen Peroxide TRPA1 Activation

| Compound | inhibition at 100 µM [%] |
| --- | --- |
| O=C(CCc1ccc(O)cc1)c1c(O)cc(O)cc1O [phloretin] | 96.9 |

Target: T2, human TRPV1 (Homo sapiens, UniProt Q8NER1)
Experiment: FLIPR Ca2+ assay, reduction of hydrogen peroxide activation of TRPV1
Type: cell-based
Parameters: expressed in transfected cells
Details: Dose 1000
Experimental: (§2) Cells were detached with addition of 10 ml of PBS (phosphate buffered saline) by hand shaking gently. Cells were transferred to a 50 ml tube and centrifuged at 850 rpm for 3 minutes to remove PBS.
The pelleted cells were re-suspended in 10 ml assay buffer and 90 μl aliquots (˜50,000 cells) per well delivered to a 96-well assay plate containing 10 μl of test compounds (1 mM in assay buffer, […]) or buffer control and incubated at room temperature for 30 minutes.

T2 sequence (Q8NER1 whole entry): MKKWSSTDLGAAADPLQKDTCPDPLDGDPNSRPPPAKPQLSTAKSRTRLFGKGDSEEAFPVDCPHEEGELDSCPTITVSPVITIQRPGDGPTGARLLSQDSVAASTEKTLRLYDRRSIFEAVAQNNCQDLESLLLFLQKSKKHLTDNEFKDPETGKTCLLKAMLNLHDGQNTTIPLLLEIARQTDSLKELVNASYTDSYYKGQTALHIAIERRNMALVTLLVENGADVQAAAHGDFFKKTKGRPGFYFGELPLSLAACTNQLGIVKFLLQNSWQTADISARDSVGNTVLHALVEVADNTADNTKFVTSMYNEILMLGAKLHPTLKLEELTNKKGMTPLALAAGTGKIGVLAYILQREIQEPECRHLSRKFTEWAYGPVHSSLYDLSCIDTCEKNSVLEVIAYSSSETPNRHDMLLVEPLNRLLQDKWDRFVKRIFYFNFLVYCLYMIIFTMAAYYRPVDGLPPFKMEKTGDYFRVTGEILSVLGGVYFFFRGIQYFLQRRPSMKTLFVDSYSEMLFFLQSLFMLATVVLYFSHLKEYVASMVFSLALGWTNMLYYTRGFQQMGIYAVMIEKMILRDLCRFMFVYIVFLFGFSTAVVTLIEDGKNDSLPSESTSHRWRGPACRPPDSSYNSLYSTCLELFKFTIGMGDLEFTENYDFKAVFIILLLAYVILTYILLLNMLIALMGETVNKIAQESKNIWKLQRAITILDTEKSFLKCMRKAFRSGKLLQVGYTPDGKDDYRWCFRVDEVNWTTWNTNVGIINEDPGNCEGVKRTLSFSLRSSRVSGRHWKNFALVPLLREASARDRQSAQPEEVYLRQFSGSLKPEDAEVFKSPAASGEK

| Compound | % inhibition of TRPV1 activation by 500 uM H2O2 [%] |
| --- | --- |
| CC1=CC(=O)C(C(C)C)CC1 [L-Piperiton] | 58 |

Same assay, conditions: Dose 4000

| Compound | % inhibition of TRPV1 activation by 500 uM H2O2 [%] |
| --- | --- |
| CC/C=C/CC1CCCC1=O (stereo not shown) [Jasminone B] | 51 |
| CCCCCC=CCC1CCCC1=O (stereo not shown) [Octenyl Cyclopentanone] | 50 |

Same assay, conditions: antagonist 100 μM against 500 μM hydrogen peroxide

| Compound | inhibition at 100 µM [%] |
| --- | --- |
| CCOc1nccnc1CC [2-Ethoxy-3-ethylpyrazine] | 58 |
| COC(=O)c1ccccc1N(C)C [Methyl N,N-Dimethylanthranilate] | 60 |

Same assay, conditions: antagonist 400 μM against 500 μM hydrogen peroxide

| Compound | inhibition at 400 µM [%] | % Reduction of Hydrogen Peroxide TRPV1 Activation [%] |
| --- | --- | --- |
| CCC(C)COC(=O)CC(C)C (stereo not shown) [2-Methylbutyl isovalerate] | 79 |  |
| CCCCCC(CC)OC(C)=O (stereo not shown) [3-Octyl Acetate] | 90 |  |
| CCCCOC(=O)C(C)C [Butyl Isobutyrate] | 58 |  |
| CC/C=C/CC1CCCC1=O (stereo not shown) [Jasminone B] |  | 51 |
| CCCCCC=CCC1CCCC1=O (stereo not shown) [Octenyl Cyclopentanone] |  | 50 |
| CC(C)=CC1CC(C)CCO1 (stereo not shown) [Tetrahydro-4-methyl-2-(2-methyl-1-propenyl)-2H pyran] | 53 |  |
| CCCN(CCC)CCC [Tripropylamine] | 63 |  |

Same assay, conditions: with compound, Dose 1000, 500 uM H2O2

| Compound | Ca++ counts |
| --- | --- |
| CCOc1nccnc1CC [2-Ethoxy-3-ethylpyrazine] | 474 |
| CC1=CC(=O)C(C(C)C)CC1 [L-Piperiton] | 361 |
| COC(=O)c1ccccc1N(C)C [Methyl N,N-Dimethylanthranilate] | 451 |

Same assay, conditions: with compound, Dose 4000, 500 uM H2O2

| Compound | Ca++ counts |
| --- | --- |
| CCC(C)COC(=O)CC(C)C (stereo not shown) [2-Methylbutyl isovalerate] | 380 |
| CCCCCC(CC)OC(C)=O (stereo not shown) [3-Octyl Acetate] | 181 |
| CCCCOC(=O)C(C)C [Butyl Isobutyrate] | 774 |
| CC/C=C/CC1CCCC1=O (stereo not shown) [Jasminone B] | 903 |
| CCCCCC=CCC1CCCC1=O (stereo not shown) [Octenyl Cyclopentanone] | 922 |
| CC(C)=CC1CC(C)CCO1 (stereo not shown) [Tetrahydro-4-methyl-2-(2-methyl-1-propenyl)-2H pyran] | 866 |
| CCCN(CCC)CCC [Tripropylamine] | 715 |

Target: T2, human TRPV1
Experiment: FLIPR Ca2+ assay, reduction of capsaicin activation of TRPV1
Type: cell-based
Parameters: expressed in transfected cells
Details: Dose 1000
Experimental: as §2, §1

| Compound | % inhibition of TRPV1 activation by 350 nM Capsaicin [%] |
| --- | --- |
| CC1=CC(=O)C(C(C)C)CC1 [L-Piperiton] | 12 |

Same assay, conditions: Dose 4000

| Compound | % inhibition of TRPV1 activation by 350 nM Capsaicin [%] |
| --- | --- |
| CC/C=C/CC1CCCC1=O (stereo not shown) [Jasminone B] | 2 |
| CCCCCC=CCC1CCCC1=O (stereo not shown) [Octenyl Cyclopentanone] | 1 |

Same assay, conditions: with compound, Dose 1000, 350 nM Capsaicin

| Compound | Ca++ counts |
| --- | --- |
| CCOc1nccnc1CC [2-Ethoxy-3-ethylpyrazine] | 14878 |
| CC1=CC(=O)C(C(C)C)CC1 [L-Piperiton] | 13225 |
| COC(=O)c1ccccc1N(C)C [Methyl N,N-Dimethylanthranilate] | 15329 |

Same assay, conditions: with compound, Dose 4000, 350 nM Capsaicin

| Compound | Ca++ counts |
| --- | --- |
| CCC(C)COC(=O)CC(C)C (stereo not shown) [2-Methylbutyl isovalerate] | 11278 |
| CCCCCC(CC)OC(C)=O (stereo not shown) [3-Octyl Acetate] | 12109 |
| CCCCOC(=O)C(C)C [Butyl Isobutyrate] | 11278 |
| CC/C=C/CC1CCCC1=O (stereo not shown) [Jasminone B] | 11635 |
| CCCCCC=CCC1CCCC1=O (stereo not shown) [Octenyl Cyclopentanone] | 9378 |
| CC(C)=CC1CC(C)CCO1 (stereo not shown) [Tetrahydro-4-methyl-2-(2-methyl-1-propenyl)-2H pyran] | 11041 |
| CCCN(CCC)CCC [Tripropylamine] | 11278 |

Target: T1, human TRPA1
Experiment: FLIPR Ca2+ assay, block of AITC activation of TRPA1
Type: cell-based
Parameters: expressed in transfected cells
Details: not given

| Compound | Block of AITC activation of TRPA1 |
| --- | --- |
| manganese chloride | Block menthol, H2O2, and AITC on TRPA1 |

Same assay, conditions: 100 μM antagonist

| Compound | Block of AITC activation of TRPA1 |
| --- | --- |
| O=C(CCc1ccc(O)cc1)c1c(O)cc(O)cc1O [phloretin] | Block menthol, H2O2, and AITC on TRPA1 |

Target: T1, human TRPA1
Experiment: FLIPR Ca2+ assay, reduction of L-Menthol activation of TRPA1
Details: not given

| Compound | Block of L-Menthol activation of TRPA1 |
| --- | --- |
| manganese chloride | Block menthol, H2O2, and AITC on TRPA1 |

Same assay, conditions: 100 μM antagonist vs 1 mM L-Menthol

| Compound | Block of L-Menthol activation of TRPA1 |
| --- | --- |
| O=C(CCc1ccc(O)cc1)c1c(O)cc(O)cc1O [phloretin] | Block menthol, H2O2, and AITC on TRPA1 |

Target: T2, human TRPV1
Experiment: FLIPR Ca2+ assay, reduction of L-Menthol activation of TRPV1
Details: antagonist 100 μM against 1 mM L-Menthol
Experimental: To determine whether TRPV1 was activated, the intracellular calcium ion (Ca^+2) levels from cells transfected with the TRPV1 receptor gene was measured. HEK-239 cells stably transfected with human TRPV1 were grown in 15 ml growth medium [high glucose DMEM (Dulbecco's Modification of Eagle's Medium) supplemented with 10% FBS (fetal bovine serum), 100 g/ml Penicillin/streptomycin, 100 g/ml G418] in a 75 Cm2 flask for 3 days at 33° C. in a mammalian cell culture incubator set at 5% CO2. Cells were detached with addition of 10 ml of PBS (phosphate buffered saline) by hand shaking gently. Cells were transferred to a 50 ml tube and centrifuged at 850 rpm for 3 minutes to remove PBS. After centrifugation, a pellet of cells formed in the bottom of the tube separating them from the supernatant solution. The supernatant was discarded and the cell pellet suspended in 1 ml of fresh growth medium to which 5 μl (12.5 g) of Fluo-4 AM (Molecular Probes, Inc., Eugene, Oreg.) calcium indicator was added and incubated for 30 minutes with gentle shaking.
The pelleted cells were re-suspended in 10 ml assay buffer and 90 μl aliquots (˜50,000 cells) per well delivered to a 96-well assay plate containing 10 μl of test compounds (1 mM in assay buffer, final concentration 100 μM) or buffer control and incubated at room temperature for 30 minutes. After 30 minutes, the plate was placed into a fluorometric imaging plate reader (FLIPR384 from Molecular Devices) and basal fluorescence recorded (excitation wave length 488 nm and emission wave length 510 nm). Then 20 μl of the compound being tested as a TRPV1 receptor activator was added and fluorescence recorded. […] It may be no difference (no effect), or negative (means antagonist or desensitizer) or positive (enhancer, also known as positive allosteric modulator). […] To determine if a compound was an antagonist or a desensitizer, the direct effect of a test compound was determined. For determining the direct effect of test compounds on TRPV1, 100 μl aliquots (˜50,000 cells) of cells prepared as described above were delivered to a 96-well assay plate and basal fluorescence recorded as noted above. Then 20 μl of the compound being tested as a TRPV1 receptor activator was added and fluorescence recorded. If any increase in fluorescence over background was noted, then the compound was considered an agonist. The agonist activity was expressed relative to that observed with a benchmark agonist such as 350 nM Capsaicin for TRPV1.
100 μM of antagonist was tested against 1 mM of L-Menthol to determine the level of reduced TRPV1 receptor activation by L-Menthol. Each antagonist compound was run with 1 mM of L-Menthol as a control and the antagonist activity of each compound was determined by comparing the Ca^2+ levels of the control with the antagonist compound being tested.

| Compound | Average Ca2+ Counts [Counts] | % Reduction of L-Menthol TRPV1 Activation [%] |
| --- | --- | --- |
| O=C(CCc1ccc(O)cc1)c1c(O)cc(O)cc1O [phloretin] | 4616.5 |  |
| manganese chloride | 3922.0 | 38.7 |

Same assay, conditions: read-out: % Reduction of L-Menthol TRPV1 Activation

| Compound | inhibition at 100 µM [%] |
| --- | --- |
| O=C(CCc1ccc(O)cc1)c1c(O)cc(O)cc1O [phloretin] | 27.9 |
